Test system: 855422-203-R-J1-PDC spheroids with HUVEC/MSC, viability
Test: Anticancer human tumor 855422-203-R-J1-PDC patient-derived bladder carcinoma cell line growth inhibition [PI3K]
Conditions: for IC50: curve of first compound; for viability, T/C: stronger effect = lower value
How it was run: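 Targeted small molecules plus PI3K inhibitors, half-log dose series from Cmax (default top 10 microM), were applied to heterotypic spheroids of cancer cells with HUVEC and MSCs. Viability indicated growth inhibition.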

[1] = second compound 0.00316 µM, first compound 0.0316 µM
[2] = second compound 0.00316 µM, first compound 0.1 µM
[3] = second compound 0.00316 µM, first compound 0.316 µM
[4] = second compound 0.00316 µM, first compound 1 µM
[5] = second compound 0.00316 µM, first compound 3.16 µM
[6] = second compound 0.00316 µM, first compound 10 µM
[7] = second compound 0.01 µM, first compound 0.0316 µM
[8] = second compound 0.01 µM, first compound 0.1 µM
[9] = second compound 0.01 µM, first compound 0.316 µM
[10] = second compound 0.01 µM, first compound 1 µM
[11] = second compound 0.01 µM, first compound 3.16 µM
[12] = second compound 0.01 µM, first compound 10 µM
[13] = second compound 0.0316 µM, first compound 0.0316 µM
[14] = second compound 0.0316 µM, first compound 0.1 µM
[15] = second compound 0.0316 µM, first compound 0.316 µM
[16] = second compound 0.0316 µM, first compound 1 µM
[17] = second compound 0.0316 µM, first compound 3.16 µM
[18] = second compound 0.0316 µM, first compound 10 µM
[19] = second compound 0.1 µM, first compound 0.0316 µM
[20] = second compound 0.1 µM, first compound 0.1 µM
[21] = second compound 0.1 µM, first compound 0.316 µM
[22] = second compound 0.1 µM, first compound 1 µM
[23] = second compound 0.1 µM, first compound 3.16 µM
[24] = second compound 0.1 µM, first compound 10 µM
[25] = second compound 0.316 µM, first compound 0.0316 µM
[26] = second compound 0.316 µM, first compound 0.1 µM
[27] = second compound 0.316 µM, first compound 0.316 µM
[28] = second compound 0.316 µM, first compound 1 µM
[29] = second compound 0.316 µM, first compound 3.16 µM
[30] = second compound 0.316 µM, first compound 10 µM
[31] = second compound 1 µM, first compound 0.0316 µM
[32] = second compound 1 µM, first compound 0.1 µM
[33] = second compound 1 µM, first compound 0.316 µM
[34] = second compound 1 µM, first compound 1 µM
[35] = second compound 1 µM, first compound 3.16 µM
[36] = second compound 1 µM, first compound 10 µM
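Note: agents incubated with spheroids for one week before read-out.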
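Throughout, for viability, T/C: 100% = DMSO vehicle-treated control wells.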

CC1(C)CCC(CN2CCN(c3ccc(C(=O)NS(=O)(=O)c4ccc(NCC5CCOCC5)c([N+](=O)[O-])c4)c(Oc4cnc5[nH]ccc5c4)c3)CC2)=C(c2ccc(Cl)cc2)C1 + COc1c(OCCCN2CCOCC2)ccc2c3n(c(=NC(=O)c4cnc(N)nc4)nc12)CCN3
IC50 (second compound 0.00316 µM): 5.28 µM | IC50 (second compound 0.01 µM): 5.04 µM | IC50 (second compound 0.0316 µM): 4.6 µM | IC50 (second compound 0.1 µM): < 0.0316 µM | IC50 (second compound 0.316 µM): < 0.0316 µM | IC50 (second compound 1 µM): < 0.0316 µM | viability, T/C [1]: 98.5% | viability, T/C [2]: 80.8% | viability, T/C [3]: 99.5% | viability, T/C [4]: 87.2% | viability, T/C [5]: 88.1% | viability, T/C [6]: 2.53% | viability, T/C [7]: 91% | viability, T/C [8]: 77.5% | viability, T/C [9]: 78.3% | viability, T/C [10]: 76.4% | viability, T/C [11]: 90.8% | viability, T/C [12]: 1.94% | viability, T/C [13]: 62.5% | viability, T/C [14]: 65.3% | viability, T/C [15]: 73.7% | viability, T/C [16]: 78.2% | viability, T/C [17]: 87.3% | viability, T/C [18]: 1.43% | viability, T/C [19]: 29.7% | viability, T/C [20]: 30.3% | viability, T/C [21]: 30.6% | viability, T/C [22]: 33.5% | viability, T/C [23]: 31.8% | viability, T/C [24]: 1.14% | viability, T/C [25]: 12.1% | viability, T/C [26]: 9.95% | viability, T/C [27]: 12.7% | viability, T/C [28]: 9.33% | viability, T/C [29]: 9.24% | viability, T/C [30]: 0.68% | viability, T/C [31]: 3.97% | viability, T/C [32]: 5.15% | viability, T/C [33]: 4.27% | viability, T/C [34]: 5.32% | viability, T/C [35]: 4.63% | viability, T/C [36]: 1.04%

C[C@@H](NC(=O)c1ncnc(N)c1Cl)c1ncc(C(=O)Nc2cc(C(F)(F)F)c(Cl)cn2)s1 + COc1c(OCCCN2CCOCC2)ccc2c3n(c(=NC(=O)c4cnc(N)nc4)nc12)CCN3
IC50 (second compound 0.00316 µM): > 10 µM | IC50 (second compound 0.01 µM): > 10 µM | IC50 (second compound 0.0316 µM): > 10 µM | IC50 (second compound 0.1 µM): < 0.0316 µM | IC50 (second compound 0.316 µM): < 0.0316 µM | IC50 (second compound 1 µM): < 0.0316 µM | viability, T/C [1]: 93.8% | viability, T/C [2]: 91.3% | viability, T/C [3]: 104% | viability, T/C [4]: 97.4% | viability, T/C [5]: 109% | viability, T/C [6]: 113% | viability, T/C [7]: 80% | viability, T/C [8]: 85.2% | viability, T/C [9]: 88.5% | viability, T/C [10]: 89.4% | viability, T/C [11]: 108% | viability, T/C [12]: 83% | viability, T/C [13]: 59.4% | viability, T/C [14]: 69.3% | viability, T/C [15]: 68.8% | viability, T/C [16]: 61.6% | viability, T/C [17]: 71.3% | viability, T/C [18]: 36.7% | viability, T/C [19]: 35.9% | viability, T/C [20]: 38.3% | viability, T/C [21]: 33.7% | viability, T/C [22]: 35.9% | viability, T/C [23]: 27.8% | viability, T/C [24]: 16.2% | viability, T/C [25]: 13.4% | viability, T/C [26]: 12.5% | viability, T/C [27]: 12.5% | viability, T/C [28]: 13.7% | viability, T/C [29]: 11.2% | viability, T/C [30]: 5.99% | viability, T/C [31]: 4.22% | viability, T/C [32]: 7.01% | viability, T/C [33]: 5.73% | viability, T/C [34]: 4.13% | viability, T/C [35]: 3.47% | viability, T/C [36]: 1.26%

Cn1ncnc1[C@H]1c2n[nH]c(=O)c3cc(F)cc(c23)N[C@@H]1c1ccc(F)cc1 + COc1c(OCCCN2CCOCC2)ccc2c3n(c(=NC(=O)c4cnc(N)nc4)nc12)CCN3
IC50 (second compound 0.00316 µM): > 0.1 µM | IC50 (second compound 0.01 µM): > 0.1 µM | IC50 (second compound 0.0316 µM): > 0.1 µM | IC50 (second compound 0.1 µM): < 0.000316 µM | IC50 (second compound 0.316 µM): < 0.000316 µM | IC50 (second compound 1 µM): < 0.000316 µM | viability, T/C (second compound 0.00316 µM, first compound 0.000316 µM): 97.2% | viability, T/C (second compound 0.00316 µM, first compound 0.001 µM): 98% | viability, T/C (second compound 0.00316 µM, first compound 0.00316 µM): 98.6% | viability, T/C (second compound 0.00316 µM, first compound 0.01 µM): 90.5% | viability, T/C [1]: 90.8% | viability, T/C [2]: 91.7% | viability, T/C (second compound 0.01 µM, first compound 0.000316 µM): 88.8% | viability, T/C (second compound 0.01 µM, first compound 0.001 µM): 80.7% | viability, T/C (second compound 0.01 µM, first compound 0.00316 µM): 78% | viability, T/C (second compound 0.01 µM, first compound 0.01 µM): 97.2% | viability, T/C [7]: 94.6% | viability, T/C [8]: 92.2% | viability, T/C (second compound 0.0316 µM, first compound 0.000316 µM): 65.5% | viability, T/C (second compound 0.0316 µM, first compound 0.001 µM): 62.2% | viability, T/C (second compound 0.0316 µM, first compound 0.00316 µM): 62.2% | viability, T/C (second compound 0.0316 µM, first compound 0.01 µM): 52.7% | viability, T/C [13]: 52.7% | viability, T/C [14]: 53.1% | viability, T/C (second compound 0.1 µM, first compound 0.000316 µM): 24.2% | viability, T/C (second compound 0.1 µM, first compound 0.001 µM): 25.9% | viability, T/C (second compound 0.1 µM, first compound 0.00316 µM): 29.1% | viability, T/C (second compound 0.1 µM, first compound 0.01 µM): 27.5% | viability, T/C [19]: 22.9% | viability, T/C [20]: 24.5% | viability, T/C (second compound 0.316 µM, first compound 0.000316 µM): 9.77% | viability, T/C (second compound 0.316 µM, first compound 0.001 µM): 8.64% | viability, T/C (second compound 0.316 µM, first compound 0.00316 µM): 8.11% | viability, T/C (second compound 0.316 µM, first compound 0.01 µM): 8.04% | viability, T/C [25]: 7.3% | viability, T/C [26]: 8.75% | viability, T/C (second compound 1 µM, first compound 0.000316 µM): 4.95% | viability, T/C (second compound 1 µM, first compound 0.001 µM): 3.74% | viability, T/C (second compound 1 µM, first compound 0.00316 µM): 3.02% | viability, T/C (second compound 1 µM, first compound 0.01 µM): 3.29% | viability, T/C [31]: 4.31% | viability, T/C [32]: 3.2%
